Experimental data from patent publication US3959272A, “Aminoalkyl esters of 2-anilino-nicotinic acids” (Societe Anonyme dite: Hexachime, priority 1972, dated 1976).

What was measured:
[1] = Anti-inflammatory activity: oedema provoked by carragenin in the rat; format: in vivo; settings: po, read-out: percentage inhibition of oedema; for inhibition in vivo at 128 mg/kg: 128 mg/kg orally; for inhibition in vivo at 256 mg/kg: 256 mg/kg orally; for inhibition in vivo at 512 mg/kg: 512 mg/kg orally; for inhibition in vivo at 64 mg/kg: 64 mg/kg orally
Description: The method used was as follows.
The anti-inflammatory activity was measured on oedema provoked by carragenin in the rat. Groups of six male rats each weighing 120 to 130 g received the compound under test orally in suspension in "tween 80", half the dose being given 2 hours before and the other half 1/2 hour before the subcutaneous plantar injection of 0.05 ml of a 1 % carragenin solution. The volume of the injected paw was measured by plethysmography at regular intervals. Table 1 below gives the percentage inhibition of the oedema with reference to untreated controls.

[2] = Analgesic activity: Siegmund's test (phenylbenzoquinone painful reactions); format: in vivo; settings: Mus musculus, po, read-out: percentage inhibition of reactions; for inhibition in vivo at 32 mg/kg: 32 mg/kg orally; for inhibition in vivo at 64 mg/kg: 64 mg/kg orally; for inhibition in vivo at 128 mg/kg: 128 mg/kg orally; for inhibition in vivo at 256 mg/kg: 256 mg/kg orally; for inhibition in vivo at 512 mg/kg: 512 mg/kg orally
Description: This activity was measured by Siegmund's test in mice and Randall and Selitto's test in the rat.
Groups of six mice received the compound under test orally 1 hour before intraperitoneal injection of 0.2 ml of an 0.02% of solution of phenylbenzoquinone. The number of painful reactiors from the fifth to the tenth minute after the injection of phenylbenzoquinone was counted.

[3] = Escape test; format: in vivo; settings: Mus musculus, ip, 0.5 h, read-out: Percentage inhibition (number of attempts to escape); for change in vivo at 16 mg/kg: 16 mg/kg intraperitoneally; for change in vivo at 32 mg/kg: 32 mg/kg intraperitoneally; for change in vivo at 64 mg/kg: 64 mg/kg intraperitoneally; for change in vivo at 128 mg/kg: 128 mg/kg intraperitoneally; for change in vivo at 256 mg/kg: 256 mg/kg intraperitoneally; for change in vivo at 8 mg/kg: 8 mg/kg intraperitoneally
Description: Groups of 8 mice were placed in sub groups of 4 in an enclosure from which they could escape by an inclined plane. The number of attempts to escape during 5 minutes were counted half an hour after intraperitoneal administration of the compound under test.

[4] = Antagonism of convulsions produced by cardiazole; format: in vivo; settings: Mus musculus, ip, read-out: Percentage inhibition of tonic convulsions; for inhibition in vivo at 4 mg/kg: 4 mg/kg intraperitoneally; for inhibition in vivo at 8 mg/kg: 8 mg/kg intraperitoneally; for inhibition in vivo at 16 mg/kg: 16 mg/kg intraperitoneally; for inhibition in vivo at 32 mg/kg: 32 mg/kg intraperitoneally; for inhibition in vivo at 64 mg/kg: 64 mg/kg intraperitoneally; for inhibition in vivo at 128 mg/kg: 128 mg/kg intraperitoneally; for inhibition in vivo at 256 mg/kg: 256 mg/kg intraperitoneally
Description: Groups of 6 mice received the compound under test 30 minutes before introperitoneal injection of 160 mg/kg of cardiazole. The action of the compound under test on the tonic convulsion phase was observed.

[5] = Potentiation of stereotypes by amphetamine; format: in vivo, rat; settings: 5 mg/kg dexamphetamine sulphate
Description: The compound under test was administered to groups of 5 rats intraperitoneally. Thirty minutes afterwards, 5 mg/kg of dexamphetamine sulphate was injected intraperitoneally. The duration of the phenomenon is counted at regular intervals from 0 to 4 and the counts are added up.

[6] = Analgesic activity: Randall and Selitto's test (beer yeast paw, pain threshold); format: in vivo, rat
Description: This activity was measured by Siegmund's test in mice and Randall and Selitto's test in the rat. Groups of ten male rats each weight 120 to 140 g received by subcutaneous plantar injection 0.05 ml of a 5% aqueous suspension of beer yeast. 2 Hours after this treatment they received the compound under test orally and 1 hour after administration of this compound the paw which had been injected and the contralateral paw were subjected to increasing pressure. The appearance of the pain threshold was noted.

[7] = Solubility in water; format: physicochemical; settings: monohydrochloride
[8] = without yeast, 128 mg/kg orally
[9] = without yeast, 256 mg/kg orally

| Structure (SMILES) | inhibition in vivo at 128 mg/kg [1] [%] | inhibition in vivo at 256 mg/kg [1] [%] | inhibition in vivo at 512 mg/kg [1] [%] | inhibition in vivo at 32 mg/kg [2] [%] | inhibition in vivo at 64 mg/kg [2] [%] | inhibition in vivo at 128 mg/kg [2] [%] | inhibition in vivo at 256 mg/kg [2] [%] | change in vivo at 16 mg/kg [3] [%] | change in vivo at 32 mg/kg [3] [%] | change in vivo at 64 mg/kg [3] [%] | change in vivo at 128 mg/kg [3] [%] | change in vivo at 256 mg/kg [3] [%] | inhibition in vivo at 16 mg/kg [4] [%] | inhibition in vivo at 32 mg/kg [4] [%] | inhibition in vivo at 64 mg/kg [4] [%] | inhibition in vivo at 128 mg/kg [4] [%] | inhibition in vivo at 256 mg/kg [4] [%] | inhibition in vivo at 64 mg/kg [1] [%] | inhibition in vivo at 512 mg/kg [2] [%] | other results |
| --- | --- | --- | --- | --- | --- | --- | --- | --- | --- | --- | --- | --- | --- | --- | --- | --- | --- | --- | --- | --- |
| O=C(OCCN1CCOCC1)c1cccnc1Nc1ccccc1 [Example 5, β-Morpholino ethyl 2-anilino nicotinate] | 0 | 17 | 71 | 16 | 38 | 57 | 83 | -12 | -5 | -23 | -20 | -78 | 33 | 33 | 16 | 33 | 100 |  |  | inhibition in vivo at 4 mg/kg [4]: 0%; inhibition in vivo at 8 mg/kg [4]: 16%; Sum of the counts (stereotypes) ([5]; 16 mg/kg intraperitoneally): 14; Sum of the counts (stereotypes) ([5]; 64 mg/kg intraperitoneally): 22; Sum of the counts (stereotypes) ([5]; 256 mg/kg intraperitoneally): 44 |
| Cc1cccc(Nc2ncccc2C(=O)OCCN2CCCCC2)c1C [Example 2, β-Piperidino ethyl nixylate] | 42 | 70 |  | 24 | 48 | 69 |  | -21 | -43 | -80 | -100 |  | 5 | 22 | 72 | 100 |  | 6 |  | percentage increase of pain threshold ([6]; with yeast, 64 mg/kg orally): 5%; percentage increase of pain threshold ([6]; with yeast, 128 mg/kg orally): 30%; percentage increase of pain threshold ([6]; with yeast, 256 mg/kg orally): 87%; percentage increase of pain threshold ([6]; without yeast, 64 mg/kg orally): 0%; percentage increase of pain threshold [6, 8]: 52%; percentage increase of pain threshold [6, 9]: 33%; change in vivo at 8 mg/kg [3]: 6%; inhibition in vivo at 4 mg/kg [4]: 0%; inhibition in vivo at 8 mg/kg [4]: 16% |
| Cc1ccc(Cl)cc1Nc1ncccc1C(=O)OCCN1CCOCC1 [Example 8, β-Morpholino ethyl 2-(2-methyl-5-chloroanilino) nicotinate] |  | 36 |  |  |  |  | 18 |  | -25 | -52 | -62 | -83 |  | 0 | 17 | 33 | 67 | 0 | 74 | inhibition in vivo at 512 mg/kg ([4]; 512 mg/kg intraperitoneally): 100%; Sum of the counts (stereotypes) ([5]; 32 mg/kg intraperitoneally): 89; Sum of the counts (stereotypes) ([5]; 64 mg/kg intraperitoneally): 87; Sum of the counts (stereotypes) ([5]; 128 mg/kg intraperitoneally): 161; Sum of the counts (stereotypes) ([5]; 256 mg/kg intraperitoneally): 195 |
| Cc1cccc(Cl)c1Nc1ncccc1C(=O)OCCN1CCOCC1 [Example 9, β-Morpholino ethyl 2-(2-chloro-6-methylanilino) nicotinate] |  | 39 |  | 8 | 8 | 37 | 66 | -19 | -22 | -59 | -100 |  |  |  | 0 | 100 |  | 20 |  | inhibition in vivo at 16 mg/kg ([1]; 16 mg/kg orally): 7%; inhibition in vivo at 16 mg/kg ([2]; 16 mg/kg orally): 14%; solubility in water [7]: soluble in water |
| Cc1cccc(C)c1Nc1ncccc1C(=O)OCCN1CCOCC1 [Example 6, β-Morpholino ethyl 2-(2,6-dimethylanilino) nicotinate] | 13 | 36 | 80 |  | 23 | 39 | 69 | -13 | -20 | -35 | -74 | -100 |  |  |  |  |  | 0 | 100 |  |
| Cc1cccc(Nc2ncccc2C(=O)OCCN2CCN(C)CC2)c1C [Example 4, β-(N-methylpiperazino)ethyl nixylate] | 50 | 62 |  | 8 | 33 | 69 | 84 | -11 | -37 | -61 | -95 |  | 0 | 0 | 58 | 91 |  | 0 |  | percentage increase of pain threshold ([6]; with yeast, 16 mg/kg orally): 0%; percentage increase of pain threshold ([6]; with yeast, 32 mg/kg orally): 31%; percentage increase of pain threshold ([6]; with yeast, 64 mg/kg orally): 27%; percentage increase of pain threshold ([6]; with yeast, 128 mg/kg orally): 61%; percentage increase of pain threshold ([6]; with yeast, 256 mg/kg orally): 16%; percentage increase of pain threshold ([6]; without yeast, 16 mg/kg orally): 8%; percentage increase of pain threshold ([6]; without yeast, 32 mg/kg orally): 30%; percentage increase of pain threshold ([6]; without yeast, 64 mg/kg orally): 46%; percentage increase of pain threshold [6, 8]: 38%; percentage increase of pain threshold [6, 9]: 10%; change in vivo at 8 mg/kg [3]: 2% |
| Cc1ccc(Nc2ncccc2C(=O)OCCN2CCOCC2)cc1Cl [Example 7, β-Morpholino ethyl 2-(3-chloro-4-methylanilino) nicotinate] | 2 | 29 | 53 | 14 | 33 | 55 | 55 | -48 |  | -62 |  | -96 |  |  | 0 | 9 | 59 |  | 77 |  |
